Values joined by “and” are separate entries in the source; they are usually repeats but may differ in a detail not shown here. Identical values can stand only once.
Legend:
[1] = Biodistribution studies of 11C tracers; assay type: in vivo, Wistar rats; settings: for SUV Blood / SUV Cerebellum / SUV Cerebrum total / SUV Cortex / SUV Hippocampus / SUV Striatum: normalized for body weight
Procedure: Biodistribution studies were carried out in healthy male Wistar rats (body weight 200-450 g) at 2 min, 30 min and 60 min post injection (p.i.) (n=3/time point). Rats were injected with about 11 MBq (2 min, 30 min analysis) or 22 MBq (60 min analysis) of the tracer via tail vein under anesthesia (2.5% isoflurane in O2 at 1 L/min flow rate) and sacrificed by decapitation at above specified time points. Blood and major organs were collected in tared tubes and weighed. The radioactivity in blood, organs and other body parts was measured using an automated gamma counter. The distribution of radioactivity in different parts of the body at different time points p.i. of the tracer was calculated and expressed as percentage of injected dose (% ID), and as percentage of injected dose per gram tissue (% ID/g) for the selected organs. % ID is calculated as cpm in organ/total cpm recovered. For calculation of total radioactivity in blood, blood mass was assumed to be 7% of the body mass.

mGluR2 = target: T1, mGluR2 (Rattus norvegicus, UniProt P31421); assay: MicroPET imaging: baseline, blocking and chase experiments; assay type: in vivo, Wistar rats; settings: for average SUV (total brain) after chase: 4650-5250 sec p.i.
T1 construct: from tissue; host or cells: brain of living male Wistar rats (in vivo microPET)
Procedure: Imaging experiments were performed on a Focus™ 220 microPET scanner (Concorde Microsystems, Knoxyille, Tenn., USA) using healthy male Wistar rats. During all scan sessions, animals were kept under gas anesthesia (2.5% isoflurane in O2 at 1 L/min flow rate).
Dynamic scans of 90 min were acquired. After reconstruction of the images (filtered back projection), they were spatially normalized to an in-house created [^11C]raclopride template of the rat brain in Paxinos coordinates. Automated and symmetric volumes of interest (VOIs) were generated for different brain regions (striatum, cortex, cerebellum, hippocampus, hypothalamus, thalamus, substantia nigra, nucleus accumbens and lateral globus pallidus) from which time-activity curves (TAC) were constructed for each individual scan, using PMOD software (v 3.1, PMOD Technologies Ltd.). The radioactivity concentration in the different brain regions was expressed as SUV as a function of time p.i. of the radiotracer by normalization for body weight of the animal and injected dose.
Rats were injected with 30-60 MBq of high specific activity formulation of [^11C]B-4, [^11C]B-2, [^11C]B-7, or [^11C]B-10 via the tail vein under isoflurane anesthesia (2.5% in O2 at 1 L/min flow rate).
For pretreatment and displacement experiments, compound A, compound B or ritanserin were dissolved and administered in a vehicle containing 20% (2-hydroxypropyl)-β-cyclodextrine and two equivalents hydrochloric acid. The ritanserin solution was protected from light.
A self-blocking study was done by subcutaneous (s.c.) administration of the authentic reference material (for [^11C]B-4) at ˜30 min prior to the radiotracer injection. Displacement studies were performed by i.v. injection of compound B at dose 4, 1, 0.3 and 0.1 mg/kg, compound A at dose 1 mg/kg or ritanserin at dose 0.3 mg/kg. All chase compounds were injected ˜30 min after radiotracer injection. A wash-out period of at least four days was maintained between the different pretreatment and displacement studies.
[^11C]B-4 was evaluated in vivo in three rats which were scanned dynamically for 90 min using μPET. The first rat was used for a baseline scan. The second rat was pretreated with authentic reference material B-4 via s.c. administration (dose 10 mg/kg) at 30 min prior to tracer injection. The third rat was used in a chase experiment and was injected i.v. with authentic reference material B-4 (dose 3 mg/kg) 30 min after tracer injection.
Two rats were injected with high specific activity tracer ([^11C]B-4, [^11C]B-2, [^11C]B-7, or [^11C]B-10) and scanned dynamically for 90 min. The first rat was scanned baseline, the second rat was injected i.v. with compound B (dose 4 mg/kg) 30 min after tracer injection. Table 16 gives an overview of the maximum and minimum SUV values in the chase experiment for the four studied tracers.
A chase experiment was performed for [^11C]B-2 with different doses of compound B (4, 1, 0.3, 0.1 mg/kg). The chase compound was injected i.v. 30 min after tracer injection. Table 17 gives an overview of the average SUV values before and after injection of the chase for the total brain.

T1 sequence (P31421 19-872): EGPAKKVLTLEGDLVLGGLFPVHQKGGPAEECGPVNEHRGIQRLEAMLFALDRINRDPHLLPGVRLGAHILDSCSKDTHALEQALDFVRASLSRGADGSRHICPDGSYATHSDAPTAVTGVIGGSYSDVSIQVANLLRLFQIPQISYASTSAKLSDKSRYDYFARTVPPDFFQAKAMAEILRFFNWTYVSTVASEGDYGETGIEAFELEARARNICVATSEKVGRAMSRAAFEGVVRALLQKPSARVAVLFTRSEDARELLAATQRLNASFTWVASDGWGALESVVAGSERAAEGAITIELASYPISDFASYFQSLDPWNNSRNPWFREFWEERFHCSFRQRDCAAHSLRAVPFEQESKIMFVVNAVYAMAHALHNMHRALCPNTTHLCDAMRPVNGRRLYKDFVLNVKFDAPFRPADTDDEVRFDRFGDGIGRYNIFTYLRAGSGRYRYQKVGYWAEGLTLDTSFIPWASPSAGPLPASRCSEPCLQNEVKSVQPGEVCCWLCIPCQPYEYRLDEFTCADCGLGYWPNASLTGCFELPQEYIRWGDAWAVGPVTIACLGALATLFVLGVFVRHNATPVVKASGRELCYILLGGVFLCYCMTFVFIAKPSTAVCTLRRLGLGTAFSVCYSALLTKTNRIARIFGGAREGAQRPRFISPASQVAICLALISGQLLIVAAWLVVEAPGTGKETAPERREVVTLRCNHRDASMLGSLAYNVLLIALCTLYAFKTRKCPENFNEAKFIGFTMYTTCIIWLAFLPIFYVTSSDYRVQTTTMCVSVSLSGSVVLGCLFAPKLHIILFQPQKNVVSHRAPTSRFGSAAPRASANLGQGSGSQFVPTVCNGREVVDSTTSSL

With `[11CH3]Oc1c(F)ccc(F)c1C1CCN(c2ccn3c(CC4CC4)nnc3c2Cl)CC1` [[^11C]B-2, 8-chloro-3-(cyclopropylmethyl)-7-[4-(3,6-difluoro-2-[^11C]methoxyphenyl)-1-piperidinyl]-1,2,4-triazolo[4,3-a]pyridine] the “% ID Blood” value ([1]; 2 min p.i.) was 4.3 % ID and 4.3 ± 0.6 % ID, the “% ID Carcass” value ([1]; 2 min p.i.) was 38.4 ± 2.6 % ID and the “% ID Cerebellum” value ([1]; 2 min p.i.) was 0.17 % ID and 0.174 ± 0.039 % ID. The “% ID Cerebrum total” value ([1]; 2 min p.i.) was 0.69 % ID and 0.691 ± 0.146 % ID, the “% ID Cortex” value ([1]; 2 min p.i.) was 0.097 ± 0.019 % ID and the “% ID Heart” value ([1]; 2 min p.i.) was 4.6 ± 0.6 % ID. The “% ID Hippocampus” value ([1]; 2 min p.i.) was 0.028 ± 0.008 % ID, the “% ID Intestines” value ([1]; 2 min p.i.) was 8.5 ± 0.3 % ID and the “% ID Kidneys” value ([1]; 2 min p.i.) was 6.6 ± 0.7 % ID. The “% ID Liver” value ([1]; 2 min p.i.) was 33.5 ± 1.4 % ID, the “% ID Lungs” value ([1]; 2 min p.i.) was 1.5 ± 0.1 % ID and the “% ID Rest of cerebrum” value ([1]; 2 min p.i.) was 0.535 ± 0.121 % ID. The “% ID Spleen + Pancreas” value ([1]; 2 min p.i.) was 1.4 ± 0.1 % ID, the “% ID Stomach” value ([1]; 2 min p.i.) was 1.4 ± 0.2 % ID and the “% ID Striatum” value ([1]; 2 min p.i.) was 0.032 ± 0.008 % ID. For the same molecule, the “% ID Urine” value ([1]; 2 min p.i.) was 0.1 ± 0.0 % ID, the Total brain uptake ([1]; 2 min p.i.) was 0.88 % ID and 0.88 ± 0.2 % ID and the “SUV Blood” value ([1]; 2 min p.i.) was 0.60 ± 0.01. For the same molecule, the “SUV Cerebellum” value ([1]; 2 min p.i.) was 1.59 ± 0.03, the “SUV Cerebrum total” value ([1]; 2 min p.i.) was 1.32 ± 0.03 and the “SUV Cortex” value ([1]; 2 min p.i.) was 1.46 ± 0.03. The “SUV Hippocampus” value ([1]; 2 min p.i.) was 0.90 ± 0.01, the “SUV Striatum” value ([1]; 2 min p.i.) was 1.22 and 1.22 ± 0.02 and the “% ID Blood” value ([1]; 30 min p.i.) was 2.7 ± 0.9 % ID. For the same molecule, the “% ID Carcass” value ([1]; 30 min p.i.) was 50.9 ± 3.4 % ID, the “% ID Cerebellum” value ([1]; 30 min p.i.) was 0.291 ± 0.088 % ID and the “% ID Cerebrum total” value ([1]; 30 min p.i.) was 0.914 ± 0.140 % ID. For the same molecule, the “% ID Cortex” value ([1]; 30 min p.i.) was 0.118 ± 0.041 % ID, the “% ID Heart” value ([1]; 30 min p.i.) was 2.5 ± 0.8 % ID and the “% ID Hippocampus” value ([1]; 30 min p.i.) was 0.045 ± 0.005 % ID. For the same molecule, the “% ID Intestines” value ([1]; 30 min p.i.) was 10.4 ± 1.2 % ID, the “% ID Kidneys” value ([1]; 30 min p.i.) was 4.3 ± 1.0 % ID and the “% ID Liver” value ([1]; 30 min p.i.) was 22.7 ± 3.0 % ID. For the same molecule, the “% ID Lungs” value ([1]; 30 min p.i.) was 1.1 ± 0.5 % ID, the “% ID Rest of cerebrum” value ([1]; 30 min p.i.) was 0.704 ± 0.112 % ID and the “% ID Spleen + Pancreas” value ([1]; 30 min p.i.) was 1.4 ± 0.2 % ID. For the same molecule, the “% ID Stomach” value ([1]; 30 min p.i.) was 3.7 ± 0.3 % ID, the “% ID Striatum” value ([1]; 30 min p.i.) was 0.047 ± 0.008 % ID and the “% ID Urine” value ([1]; 30 min p.i.) was 0.3 ± 0.1 % ID. The Total brain uptake ([1]; 30 min p.i.) was 1.23 ± 0.2 % ID, the “SUV Blood” value ([1]; 30 min p.i.) was 0.40 ± 0.01 and the “SUV Cerebellum” value ([1]; 30 min p.i.) was 2.62 and 2.62 ± 0.04. The “SUV Cerebrum total” value ([1]; 30 min p.i.) was 1.96 ± 0.03, the “SUV Cortex” value ([1]; 30 min p.i.) was 1.77 ± 0.04 and the “SUV Hippocampus” value ([1]; 30 min p.i.) was 1.49 ± 0.03. For the same molecule, the “SUV Striatum” value ([1]; 30 min p.i.) was 2.14 and 2.14 ± 0.04, the “% ID Blood” value ([1]; 60 min p.i.) was 2.0 % ID and 2.0 ± 0.0 % ID and the “% ID Carcass” value ([1]; 60 min p.i.) was 55.8 ± 9.4 % ID. The “% ID Cerebellum” value ([1]; 60 min p.i.) was 0.142 ± 0.029 % ID, the “% ID Cerebrum total” value ([1]; 60 min p.i.) was 0.558 ± 0.042 % ID and the “% ID Cortex” value ([1]; 60 min p.i.) was 0.080 ± 0.022 % ID. For the same molecule, the “% ID Heart” value ([1]; 60 min p.i.) was 1.2 ± 0.2 % ID, the “% ID Hippocampus” value ([1]; 60 min p.i.) was 0.024 ± 0.006 % ID and the “% ID Intestines” value ([1]; 60 min p.i.) was 15.6 ± 2.7 % ID. For the same molecule, the “% ID Kidneys” value ([1]; 60 min p.i.) was 2.1 ± 0.2 % ID, the “% ID Liver” value ([1]; 60 min p.i.) was 20.1 ± 7.0 % ID and the “% ID Lungs” value ([1]; 60 min p.i.) was 0.6 ± 0.1 % ID. For the same molecule, the “% ID Rest of cerebrum” value ([1]; 60 min p.i.) was 0.421 ± 0.010 % ID, the “% ID Spleen + Pancreas” value ([1]; 60 min p.i.) was 0.7 ± 0.0 % ID and the “% ID Stomach” value ([1]; 60 min p.i.) was 1.7 ± 0.4 % ID. For the same molecule, the “% ID Striatum” value ([1]; 60 min p.i.) was 0.033 ± 0.008 % ID, the “% ID Urine” value ([1]; 60 min p.i.) was 0.3 ± 0.1 % ID and the “% ID present in liver and intestines” value ([1]; 60 min p.i.) was 35.7 % ID. The “% ID present in the urinary system” value ([1]; 60 min p.i.) was 2.4 % ID, the Total brain uptake ([1]; 60 min p.i.) was 0.71 ± 0.0 % ID and the “SUV Blood” value ([1]; 60 min p.i.) was 0.30 ± 0.01. For the same molecule, the “SUV Cerebellum” value ([1]; 60 min p.i.) was 1.75 ± 0.04, the “SUV Cerebrum total” value ([1]; 60 min p.i.) was 1.11 ± 0.06 and the “SUV Cortex” value ([1]; 60 min p.i.) was 1.28 ± 0.02. The “SUV Hippocampus” value ([1]; 60 min p.i.) was 0.73 ± 0.06, the “SUV Striatum” value ([1]; 60 min p.i.) was 1.72 ± 0.02 and the “% ID present in the carcass” value ([1]; at all time points examined) was ~50 % ID. The “average SUV (total brain), baseline” value (mGluR2; baseline scan, 930-1650 sec p.i.) was 1.26, the “% reduction of SUV (total brain) due to chase” value (mGluR2; chase compound B 4 mg/kg i.v.) was 73% and the “% reduction of SUV (total brain)” value (mGluR2; compound B 0.1 mg/kg) was 50%. The “average SUV (total brain) before chase” value (mGluR2; compound B 0.1 mg/kg, 930-1650 sec p.i.) was 1.35, the “average SUV (total brain) after chase” value (mGluR2; compound B 0.1 mg/kg) was 0.67 and the “% reduction of SUV (total brain)” value (mGluR2; compound B 0.3 mg/kg) was 64%. The “average SUV (total brain) before chase” value (mGluR2; compound B 0.3 mg/kg, 930-1650 sec p.i.) was 2.15, the “average SUV (total brain) after chase” value (mGluR2; compound B 0.3 mg/kg) was 0.78 and the “% reduction of SUV (total brain)” value (mGluR2; compound B 1 mg/kg) was 66%. The “average SUV (total brain) before chase” value (mGluR2; compound B 1 mg/kg, 930-1650 sec p.i.) was 1.78, the “average SUV (total brain) after chase” value (mGluR2; compound B 1 mg/kg) was 0.61 and the “% reduction of SUV (total brain)” value (mGluR2; compound B 4 mg/kg) was 74%. The “average SUV (total brain) before chase” value (mGluR2; compound B 4 mg/kg, 930-1650 sec p.i.) was 1.36, the “average SUV (total brain) after chase” value (mGluR2; compound B 4 mg/kg) was 0.36 and the “character of tracer binding to mGluR2 in vivo” value (mGluR2; concluded from blocking/chase microPET experiments) was “binds reversible, specific and selective to mGluR2”. For the same molecule, the “SUV (total brain) before chase” value (mGluR2; maximum SUV, chase compound B 4 mg/kg i.v. 30 min after tracer) was 1.4 and the “SUV (total brain) after chase” value (mGluR2; minimum SUV, chase compound B 4 mg/kg i.v. 30 min after tracer) was 0.38.

— patent publication US20130230459A1, “RADIOLABELLED mGluR2 PET LIGANDS” (Janssen Pharmaceuticals, Inc., priority 2010, published 2013)
